Data from patent US10851348B2, “Proliferative primary human Sertoli cell cultures and their applications” (Mandalmed, Inc., priority 2006, dated 2020).

Columns and labels:
rat Sertoli cell TJs = conditions: cited from earlier work
[1] = test system: human Sertoli cells (MM-HSe-2305 cells); experiment: BrdU proliferation of human Sertoli cells in response to FSH treatment; assay type: cell-based; conditions: 200-ng/ml FSH for 1 week; >50 fields; p<0.001 vs without FSH
Procedure: It has been reported that cultured rat Sertoli cells, proliferate in response to recombinant FSH (Buzzard, Wreford et al. 2002). We determined the response of the human cells to FSH treatment to provide further evidence that they are Sertoli cells. The human Sertoli cells (MM-HSe-2305 cells; 7,000 per well) were placed in 8-well chamber slides and incubated with control media or with media containing 200-ng/ml FSH (Sigma-Aldrich) for 1 week. Then the cells were labeled with BrdU that is incorporated into nuclei during DNA synthesis prior to mitosis. The slides were stained with anti-BrdU antibody (finally stained by Texas red) followed by staining with an antibody to FSHr (finally with FITC), and nuclei marked by bisbenzamide.
Briefly, the MM-HSE-2305 cells were labeled with BrdU (Roche; 100 μM) at 37° C./[…] for 2 hours then washed three times with PBS followed by fixing with 4% PFA for 30 min. […] Fluorescence was enhanced by incubating with ABC solution (Vector laboratories) for 30 min. Immunoreactivity was visualized by fluorescence microscopy using avidin-conjugated Texas red (1:200 in PBS) for 1 hour.
Photomicrographs were taken with different filters of the same field. The percentage of proliferating Sertoli cells was determined by the counting the number of FSHr, BrdU double positive cells and dividing this by the total number of cells per field. […]

## [Cl][Cd][Cl] [Cadmium chloride, cadmium chloride]
Rat Sertoli cell TJs; effect lasted for a number of days
  effect on permeability of rodent Sertoli cell monolayers: increased the permeability
Rat Sertoli cell TJs; in vivo, and in vitro at the 5 and 10 μM concentration
  effect on Sertoli cell TJs: damage rat Sertoli cell TJs

## follicle stimulating hormone [FSH]
[1]
  percent of cells undergoing proliferation (FSHr, BrdU double positive cells / total cells): 12.35%
